The source made the active and inactive calls. How the calls were made is not given here.
System: CCRIS mutagenicity, Ames/micronucleus/aberration tests
Assay: CCRIS mutagenicity studies
[1] = Test System: AMES SALMONELLA TYPHIMURIUM, Strain/Indicator: TA98, Metabolic Activation: NONE, Method: STANDARD PLATE
[2] = Test System: AMES SALMONELLA TYPHIMURIUM, Strain/Indicator: TA100, Metabolic Activation: NONE, Method: STANDARD PLATE
[3] = Test System: AMES SALMONELLA TYPHIMURIUM, Strain/Indicator: TA1535, Metabolic Activation: NONE, Method: STANDARD PLATE
[4] = Test System: Mouse lymphoma, Strain/Indicator: L5178Y (tk+/tk-), Metabolic Activation: None, Method: Suspension/plate
[5] = Test System: Mouse lymphoma, Strain/Indicator: L5178Y (tk+/tk-), Metabolic Activation: Rat, Liver, S-9, Aroclor 1254, Method: Suspension/plate
[6] = Test System: AMES SALMONELLA TYPHIMURIUM, Strain/Indicator: TA98, Metabolic Activation: RAT, LIVER, S-9, AROCLOR 1254, Method: STANDARD PLATE

SMILES: C[Si]1(C)O[Si](C)(C)O[Si](C)(C)O[Si](C)(C)O1
- mutagenic call (Test System: AMES SALMONELLA TYPHIMURIUM, Strain/Indicator: TA98, Metabolic Activation: NONE, Method: PREINCUBATION): inactive; negative
- mutagenic call [1]: inactive; negative
- mutagenic call (Test System: AMES SALMONELLA TYPHIMURIUM, Strain/Indicator: TA98, Metabolic Activation: RAT LIVER S-9, AROCLOR 1254, Method: PREINCUBATION): inactive; negative
- mutagenic call (Test System: AMES SALMONELLA TYPHIMURIUM, Strain/Indicator: TA98, Metabolic Activation: RAT LIVER S-9, AROCLOR 1254, Method: STANDARD PLATE): inactive; negative
- mutagenic call (Test System: AMES SALMONELLA TYPHIMURIUM, Strain/Indicator: TA100, Metabolic Activation: NONE, Method: PREINCUBATION): inactive; negative
- mutagenic call [2]: inactive; negative
- mutagenic call (Test System: AMES SALMONELLA TYPHIMURIUM, Strain/Indicator: TA100, Metabolic Activation: RAT LIVER S-9, AROCLOR 1254, Method: PREINCUBATION): inactive; negative
- mutagenic call (Test System: AMES SALMONELLA TYPHIMURIUM, Strain/Indicator: TA100, Metabolic Activation: RAT LIVER S-9, AROCLOR 1254, Method: STANDARD PLATE): inactive; negative
- mutagenic call (Test System: AMES SALMONELLA TYPHIMURIUM, Strain/Indicator: TA1535, Metabolic Activation: NONE, Method: PREINCUBATION): inactive; negative
- mutagenic call [3]: inactive; negative
- mutagenic call (Test System: AMES SALMONELLA TYPHIMURIUM, Strain/Indicator: TA1535, Metabolic Activation: RAT LIVER S-9, AROCLOR 1254, Method: PREINCUBATION): inactive; negative
- mutagenic call (Test System: AMES SALMONELLA TYPHIMURIUM, Strain/Indicator: TA1535, Metabolic Activation: RAT LIVER S-9, AROCLOR 1254, Method: STANDARD PLATE): inactive; negative
- mutagenic call (Test System: AMES SALMONELLA TYPHIMURIUM, Strain/Indicator: TA1537, Metabolic Activation: NONE, Method: PREINCUBATION): inactive; negative
- mutagenic call (Test System: AMES SALMONELLA TYPHIMURIUM, Strain/Indicator: TA1537, Metabolic Activation: NONE, Method: STANDARD PLATE): inactive; negative
- mutagenic call (Test System: AMES SALMONELLA TYPHIMURIUM, Strain/Indicator: TA1537, Metabolic Activation: RAT LIVER S-9, AROCLOR 1254, Method: PREINCUBATION): inactive; negative
- mutagenic call (Test System: AMES SALMONELLA TYPHIMURIUM, Strain/Indicator: TA1537, Metabolic Activation: RAT LIVER S-9, AROCLOR 1254, Method: STANDARD PLATE): inactive; negative
- mutagenic call (Test System: AMES SALMONELLA TYPHIMURIUM, Strain/Indicator: TA1538, Metabolic Activation: NONE, Method: PREINCUBATION): inactive; negative
- mutagenic call (Test System: AMES SALMONELLA TYPHIMURIUM, Strain/Indicator: TA1538, Metabolic Activation: NONE, Method: STANDARD PLATE): inactive; negative
- mutagenic call (Test System: AMES SALMONELLA TYPHIMURIUM, Strain/Indicator: TA1538, Metabolic Activation: RAT LIVER S-9, AROCLOR 1254, Method: PREINCUBATION): inactive; negative
- mutagenic call (Test System: AMES SALMONELLA TYPHIMURIUM, Strain/Indicator: TA1538, Metabolic Activation: RAT LIVER S-9, AROCLOR 1254, Method: STANDARD PLATE): inactive; negative
- mutagenic call (Test System: E. COLI, Strain/Indicator: P3078 POLA, Metabolic Activation: NONE, Method: SPOT TEST): inactive; negative
- mutagenic call (Test System: E. COLI, Strain/Indicator: P3078 POLA, Metabolic Activation: RAT LIVER S-9, AROCLOR 1254, Method: SPOT TEST): inactive; negative
- mutagenic call (Test System: E. COLI, Strain/Indicator: W3110, Metabolic Activation: NONE, Method: SPOT TEST): inactive; negative
- mutagenic call (Test System: E. COLI, Strain/Indicator: W3110, Metabolic Activation: RAT LIVER S-9, AROCLOR 1254, Method: SPOT TEST): inactive; negative
- mutagenic call (Test System: MOUSE LYMPHOMA, Strain/Indicator: L5178Y (TK+/TK-), Metabolic Activation: NONE, Method: SUSPENSION/PLATE): inactive; negative
- mutagenic call (Test System: MOUSE LYMPHOMA, Strain/Indicator: L5178Y (TK+/TK-), Metabolic Activation: RAT, LIVER, S-9, Method: SUSPENSION/PLATE): inactive; negative
- mutagenic call [4]: inactive; inconclusive (previous evaluation negative)
- mutagenic call [5]: inactive; negative

SMILES: C[C@H]1CCC/C=C/[C@@H]2C[C@H](O)C[C@H]2[C@H](O)/C=C/C(=O)O1
- mutagenic call [4]: inactive; negative
- mutagenic call [5]: equivocal

SMILES: CCc1c2ccccc2c(C)c2c1ccc1ccccc12
- mutagenic call (Test System: AMES SALMONELLA TYPHIMURIUM, Strain/Indicator: TA98, Method: STANDARD PLATE): inactive; negative
- mutagenic call (Test System: AMES SALMONELLA TYPHIMURIUM, Strain/Indicator: TA100, Metabolic Activation: RAT, LIVER, S-9, PHENOBARBITAL, Method: STANDARD PLATE): inactive; negative
- mutagenic call (Test System: AMES SALMONELLA TYPHIMURIUM, Strain/Indicator: TA100, Method: STANDARD PLATE): inactive; negative

SMILES: O[C@@H]1C=CC=C[C@H]1O
- mutagenic call (Test System: AMES SALMONELLA TYPHIMURIUM, Strain/Indicator: TA97, Metabolic Activation: NONE, Method: STANDARD PLATE): inactive; negative
- mutagenic call [1]: inactive; negative
- mutagenic call [6]: inactive; negative
- mutagenic call [2]: inactive; negative
- mutagenic call [3]: inactive; negative
- mutagenic call (Test System: AMES SALMONELLA TYPHIMURIUM, Strain/Indicator: TA1535, Metabolic Activation: RAT, LIVER, S-9, AROCLOR 1254, Method: STANDARD PLATE): active; positive
- mutagenic call (Test System: CHINESE HAMSTER V-79, Strain/Indicator: V-79/6-THIOGUANINE, Metabolic Activation: NONE): inactive; negative

SMILES: CC(=O)Nc1ccc([C@@H]2O[C@@H]2C(=O)c2ccccc2)cc1
- mutagenic call [1]: inactive; negative
- mutagenic call [6]: active; positive
- mutagenic call [2]: active; positive
- mutagenic call (Test System: AMES SALMONELLA TYPHIMURIUM, Strain/Indicator: TA100, Metabolic Activation: RAT, LIVER, S-9, AROCLOR 1254, Method: STANDARD PLATE): active; positive

SMILES: CN(Cc1cccc(Cl)c1)N=O
- mutagenic call (Test System: AMES SALMONELLA TYPHIMURIUM, Strain/Indicator: TA1535, Metabolic Activation: HAMSTER, LIVER, S-9, AROCLOR 1254, Method: STANDARD PLATE): active; positive
- mutagenic call [3]: inactive; negative

SMILES: COc1nsc2c(N)cccc12
- mutagenic call (Test System: AMES SALMONELLA TYPHIMURIUM, Strain/Indicator: TA98, Metabolic Activation: S-9, Method: STANDARD PLATE): active; positive

SMILES: NC(=O)N(CCCO)N=O
- mutagenic call (Test System: E. COLI B, Strain/Indicator: H/R30R, Metabolic Activation: NONE): active; positive
- mutagenic call (Test System: E. COLI B, Strain/Indicator: HS30R, Metabolic Activation: NONE): active; positive

SMILES: CC(=O)NSc1c2cc(O)ccc2nc2ccc(O)cc12
- mutagenic call (Test System: AMES SALMONELLA TYPHIMURIUM, Strain/Indicator: TA97A, Metabolic Activation: NONE, Method: PREINCUBATION): active; positive
